Test results as given in ChEMBL document CHEMBL4665622, “Repurposing ibuprofen to control Staphylococcus aureus biofilms” (2019).
In brackets after ≈: the same amount, converted by molar mass.

How the values were obtained:
[1] = system: Cell membrane; experiment: Effect on surface tension of Staphylococcus aureus CECT 976 assessed as electron acceptor component at 0.5 times of MIC incubated for 1 hr (reference value: 0.5 +/- 0.1 mJ/m2); format: subcellular
[2] = system: Cell membrane; experiment: Effect on surface tension of Staphylococcus aureus CECT 976 assessed as electron acceptor component at 0.25 times of MIC incubated for 1 hr (reference value: 0.5 +/- 0.1 mJ/m2); format: subcellular
[3] = system: Cell membrane; experiment: Effect on surface tension of Staphylococcus aureus CECT 976 assessed as Lewis acid-base at MIC incubated for 1 hr (reference value: 10.5 +/- 1.3 mJ/m2); format: subcellular
[4] = system: Cell membrane; experiment: Effect on surface tension of Staphylococcus aureus CECT 976 assessed as Lewis acid-base at 0.5 times of MIC incubated for 1 hr (reference value: 10.5 +/- 1.3 mJ/m2); format: subcellular
[5] = system: Cell membrane; experiment: Effect on surface tension of Staphylococcus aureus CECT 976 assessed as Lewis acid-base at 0.25 times of MIC incubated for 1 hr (reference value: 10.5 +/- 1.3 mJ/m2); format: subcellular
[6] = system: Cell membrane; experiment: Effect on surface tension of Staphylococcus aureus CECT 976 assessed as Lifshitz-van der Waals at MIC incubated for 1 hr (reference value: 40.5 +/- 0.0 mJ/m2); format: subcellular
[7] = system: Cell membrane; experiment: Disruption of cytoplasmic membrane integrity in Staphylococcus aureus CECT 976 assessed as potassium ion release at MBC incubated for 1 hr by flame emission and atomic absorption spectroscopy (reference value: 0 mg/L); format: subcellular
[8] = system: Cell membrane; experiment: Disruption of cytoplasmic membrane integrity in Staphylococcus aureus CECT 976 assessed as potassium ion release at MIC incubated for 1 hr by flame emission and atomic absorption spectroscopy (reference value: 0 mg/L); format: subcellular
[9] = system: Cell membrane; experiment: Disruption of cytoplasmic membrane integrity in Staphylococcus aureus CECT 976 assessed as potassium ion release at 0.5 times of MIC incubated for 1 hr by flame emission and atomic absorption spectroscopy (reference value: 0 mg/L); format: subcellular
[10] = system: Cell membrane; experiment: Disruption of cytoplasmic membrane integrity in Staphylococcus aureus CECT 976 assessed as potassium ion release at 0.25 times of MIC incubated for 1 hr by flame emission and atomic absorption spectroscopy (reference value: 0 mg/L); format: subcellular
[11] = system: Cell membrane; experiment: Destabilization of cytoplasmic membrane integrity in Staphylococcus aureus CECT 976 at MIC incubated for 1 hr by epifluorescence microscope analysis (reference value: 10.6 %); format: subcellular
[12] = system: Cell membrane; experiment: Destabilization of cytoplasmic membrane integrity in Staphylococcus aureus CECT 976 at 0.5 times of MIC incubated for 1 hr by epifluorescence microscope analysis (reference value: 10.6 %); format: subcellular
[13] = system: Cell membrane; experiment: Destabilization of cytoplasmic membrane integrity in Staphylococcus aureus CECT 976 at 0.25 times of MIC incubated for 1 hr by epifluorescence microscope analysis (reference value: 10.6 %); format: subcellular
[14] = system: Staphylococcus aureus; experiment: Bactericidal activity against Staphylococcus aureus XU212 assessed as reduction in bacterial growth incubated for 24 hrs by broth microdilution method; format: functional
[15] = system: Staphylococcus aureus; experiment: Bactericidal activity against Staphylococcus aureus SA1199B assessed as reduction in bacterial growth incubated for 24 hrs by broth microdilution method; format: functional
[16] = system: Staphylococcus aureus; experiment: Bactericidal activity against Staphylococcus aureus RN4220 assessed as reduction in bacterial growth incubated for 24 hrs by broth microdilution method; format: functional
[17] = system: Staphylococcus aureus; experiment: Bactericidal activity against Staphylococcus aureus CECT 976 incubated for 24 hrs by broth microdilution method; format: functional
[18] = Antibacterial activity against Paracoccus yeei assessed as reduction in bacterial growth at pH 5 incubated for 24 hrs by broth microdilution method; format: functional
[19] = system: Staphylococcus aureus; experiment: Antibacterial activity against Staphylococcus aureus assessed as reduction in bacterial growth incubated for 24 hrs by broth microdilution method; format: functional
[20] = system: Staphylococcus aureus; experiment: Antibacterial activity against Staphylococcus aureus assessed as reduction in bacterial growth at pH 5 incubated for 24 hrs by broth microdilution method; format: functional
[21] = system: Staphylococcus aureus; experiment: Antibacterial activity against Staphylococcus aureus assessed as reduction in bacterial growth at pH 6 incubated for 24 hrs by broth microdilution method; format: functional
[22] = system: Staphylococcus aureus; experiment: Antibacterial activity against Staphylococcus aureus assessed as reduction in bacterial growth at pH 7 incubated for 24 hrs by broth microdilution method; format: functional
[23] = system: Staphylococcus aureus; experiment: Antibacterial activity against Staphylococcus aureus XU212 assessed as reduction in bacterial growth incubated for 24 hrs by broth microdilution method; format: functional
[24] = system: Staphylococcus aureus; experiment: Antibacterial activity against Staphylococcus aureus SA1199B assessed as reduction in bacterial growth incubated for 24 hrs by broth microdilution method; format: functional
[25] = system: Staphylococcus aureus; experiment: Antibacterial activity against Staphylococcus aureus RN4220 assessed as reduction in bacterial growth incubated for 24 hrs by broth microdilution method; format: functional
[26] = system: Staphylococcus aureus; experiment: Antibacterial activity against Staphylococcus aureus CECT 976 assessed as reduction in bacterial growth incubated for 24 hrs by broth microdilution method; format: functional
[27] = system: Streptococcus pneumoniae; experiment: Inhibition of biofilm formation in Streptococcus pneumoniae incubated for 24 hrs by crystal violet staining based assay relative to control; format: functional
[28] = system: Escherichia coli; experiment: Inhibition of biofilm formation in Escherichia coli incubated for 24 hrs by crystal violet staining based assay relative to control; format: functional
[29] = system: Staphylococcus aureus; experiment: Inhibition of cell adhesion in Staphylococcus aureus CECT 976 assessed as decrease in CFU at 5 times of MIC incubated upto 24 hrs relative to control; format: functional; details: time hrs <=24
[30] = system: Cell membrane; experiment: Effect on surface tension of Staphylococcus aureus CECT 976 assessed as Lifshitz-van der Waals at 0.25 times of MIC incubated for 1 hr (reference value: 40.5 +/- 0.0 mJ/m2); format: subcellular
[31] = system: Cell membrane; experiment: Effect on surface tension of Staphylococcus aureus CECT 976 assessed as Lifshitz-van der Waals at 0.5 times of MIC incubated for 1 hr (reference value: 40.5 +/- 0.0 mJ/m2); format: subcellular

With `CC(C)Cc1ccc(C(C)C(=O)O)cc1` (stereo unspecified) [IBUPROFEN] as the compound, how does the Activity [1] read?
Its Activity is 1.1 mJ/m2.

And the Activity [2]?
The Activity was 0.7 mJ/m2.

And the Activity [3]?
The Activity was 12.5 mJ/m2.

And the Activity [4]?
Its Activity is 13.8 mJ/m2.

What about the Activity [5] of the same compound?
The Activity was 11.7 mJ/m2.

What about the Activity [6] of the same compound?
The Activity was 38 mJ/m2.

What about the Activity [7] of the same compound?
Its Activity is 0.54 mg/L.

What about the Activity [8] of the same compound?
The Activity was 0.49 mg/L.

And the Activity [9]?
Its Activity is 0.51 mg/L.

And the Activity [10]?
Its Activity is 0.51 mg/L.

And the Activity [11]?
Its Activity is 97.9%.

What about the Activity [12] of the same compound?
The Activity was 99.8%.

And the Activity [13]?
Its Activity is 99.1%.

And the MBC [14]?
The MBC was 1600 µg/mL (≈ 7.76 mM).

What about the MBC [15] of the same compound?
The MBC was 1600 µg/mL (≈ 7.76 mM).

What about the MBC [16] of the same compound?
Its MBC is greater than 2000 µg/mL.

What about the MBC [17] of the same compound?
The MBC was 1400 µg/mL (≈ 6.79 mM).

What about the MIC [18] of the same compound?
Its MIC is 1250 µg/mL (≈ 6.06 mM).

What about the MIC [19] of the same compound?
Its MIC is 1250 µg/mL (≈ 6.06 mM).

What about the MIC [20] of the same compound?
The MIC was 40 µg/mL (≈ 0.194 mM).

And the MIC [21]?
The MIC was 350 µg/mL (≈ 1.7 mM).

What about the MIC [22] of the same compound?
The MIC was greater than 600 µg/mL.

And the MIC [23]?
Its MIC is 1600 µg/mL (≈ 7.76 mM).

What about the MIC [24] of the same compound?
The MIC was 1000 µg/mL (≈ 4.85 mM).

And the MIC [25]?
The MIC was 2000 µg/mL (≈ 9.7 mM).

And the MIC [26]?
The MIC was 500 µg/mL (≈ 2.42 mM).

And the “inhibition (INH)” value [27]?
Its value is 37%.

And the “inhibition (INH)” value [28]?
The value was 37%.

What about the “inhibition (INH)” value [29] of the same compound?
The value was 100%.

What about the Activity [30] of the same compound?
The Activity was 39.5 mJ/m2.

What about the Activity [31] of the same compound?
The Activity was 37.3 mJ/m2.
